Tested on: patients with prior myocardial infarction (CARE study)
Experiment: CARE: association of SNPs with pravastatin treatment in cardiovascular events prevention (logistic regression, odds ratio pravastatin vs placebo by genotype; Table 8)
Type: in vivo, human
Conditions: for MI (Fatal/Nonfatal), n/total (%) / Nonfatal MI (Probable/Definite), n/total (%) / Nonfatal MI (def & prob), n/total (%) / Fatal/Nonfatal MI (def & prob), n/total (%) / Hosp. for Unstable Angina, n/total (%): MJD hCV16189421, All Patients; for MI (Fatal/Nonfatal), n/total (%) / Nonfatal MI (Probable/Definite), n/total (%) / Nonfatal MI (def & prob), n/total (%) / Fatal/Nonfatal MI (def & prob), n/total (%) / Hosp. for Unstable Angina, n/total (%) / Percutaneous Transluminal Coronary Angioplas, n/total (%) / Fatal/Nonfatal Cerebrovascular Disease, n/total (%): Prava arm; for Percutaneous Transluminal Coronary Angioplas, n/total (%): MMP27 hCV7492601, All Patients; for Total Coronary Heart Disease Events, n/total (%) / Fatal/Non-fatal Atherosclerotic CV Disease, n/total (%) / Hosp. for Cardiovascular Disease, n/total (%) / Total Cardiovascular Disease Events, n/total (%) / Prava vs. Placebo Odds Ratio, 0 Rare Alleles / Prava vs. Placebo Odds Ratio, 1 Rare Alleles / Prava vs. Placebo Odds Ratio, 2 Rare Alleles / Fatal Atherosclerotic Cardiovascular Disease, n/total (%) / Cardiovascular Mortality, n/total (%): All Patients; for Total Coronary Heart Disease Events, n/total (%) / Fatal/Non-fatal Atherosclerotic CV Disease, n/total (%) / Hosp. for Cardiovascular Disease, n/total (%) / Total Cardiovascular Disease Events, n/total (%) / Fatal Atherosclerotic Cardiovascular Disease, n/total (%) / Cardiovascular Mortality, n/total (%): Prava; for Fatal/Nonfatal Cerebrovascular Disease, n/total (%): NID2 hCV15876071, All Patients
Description: In order to identify genetic markers associated with acute coronary events (e.g. MI, stroke, unstable angina, congestive heart failure, etc.) or response to statin treatment for the prevention of coronary events, samples from the Cholesterol and Recurrent Events (CARE) study (a randomized multicentral double-blinded trial on secondary prevention of acute coronary events with pravastatin) (Sacks et al., 1991, Am. J. Cardiol. 68: 1436-1446) were genotyped. A well-documented myocardial infarction (MI) was one of the enrollment criteria for entry into the CARE study. Patients were enrolled in the CARE trial from 80 participating study centers. […] Patients were randomized to receive either 40 mg of pravastatin once daily or a matching placebo. The primary endpoint of the trial was death from coronary heart disease and the median duration of follow-up was 5.0 years (range, 4.0 to 6.2 years). […] Secondary endpoints of other related cardiovascular or metabolic disease events, and changes in clinical variables were also recorded in pravastatin-treated and placebo groups. All individuals included in the study had signed a written informed consent form and the study protocol was approved by the respective Institutional Review Boards (IRBs).
For genotyping SNPs in CARE patient samples, DNA was extracted from blood samples using conventional DNA extraction methods such as the QIA-amp kit from Qiagen. Genotypes were obtained on an ABI PRISM® 7900HT Sequence Detection PCR system (Applied Biosystems, Foster City, Calif.) by kinetic allele-specific PCR, similar to the method described by Germer et al. (Germer S., Holland M. J., Higuchi R. 2000, Genome Res. 10: 258-266).
Statistical analysis for association of SNPs with pravastatin treatment in cardiovascular events prevention (Table 8) was carried out using an overall logistic regression model that included an intercept, a parameter for the effect of a genotype containing two rare alleles versus a genotype containing no rare alleles, a parameter for the effect of a genotype containing one rare allele versus a genotype containing no rare alleles, a parameter for the effect of use of pravastatin versus the use of placebo, and parameters for the interaction effects between SNP genotypes and pravastatin use. The test of the overall model is a chi-square test with two degrees of freedom for analyses containing all three genotypes, and one degree of freedom for analyses containing two genotypes.
Effect sizes were estimated through odds ratios (pravastatin group versus placebo) for carriers of each genotype (groups of 0, 1, and 2 minor allele carriers). The effect was considered to be significant if p-value for testing whether any of the interactions between SNP genotypes and pravastatin use were <0.05. […] Odds ratios less than one indicate that the specific SNP allele has a protective effect and odds ratios greater than one indicate that the specific SNP allele has an adverse effect.

[1] = MTRR hCV7580070, 2 Rare Alleles, n/total 2/22
[2] = MTRR hCV7580070, 2 Rare Alleles, n/total 5/22
[3] = MTRR hCV7580070, Fatal/Non-fatal Atherosclerotic CV Disease
[4] = MTRR hCV7580070, Hosp. for Cardiovascular Disease
[5] = MTRR hCV7580070, Total Cardiovascular Disease Events
[6] = MTRR hCV7580070, Total Coronary Heart Disease Events
[7] = NPC1 hCV7490135, 1 Rare Allele, n/total 26/742
[8] = NPC1 hCV7490135, 2 Rare Alleles, n/total 3/324

## CC[C@H](C)C(=O)O[C@H]1C[C@H](O)C=C2C=C[C@H](C)[C@H](CC[C@@H](O)C[C@@H](O)CC(=O)O)[C@H]21 [pravastatin]
0 Rare Alleles
  MI (Fatal/Nonfatal), n/total (%): (8.6%)
  Nonfatal MI (Probable/Definite), n/total (%): (8.0%)
  Nonfatal MI (def & prob), n/total (%): (7.5%)
  Percutaneous Transluminal Coronary Angioplas, n/total (%): (9.7%)
  Fatal/Nonfatal Cerebrovascular Disease, n/total (%): (5.7%)
1 Rare Allele
  Fatal/Nonfatal MI (def & prob), n/total (%): (11.9%)
  Hosp. for Unstable Angina, n/total (%): (17.6%)
  MI (Fatal/Nonfatal), n/total (%): (12.1%)
  Nonfatal MI (Probable/Definite), n/total (%): (11.3%)
  Nonfatal MI (def & prob), n/total (%): (11.2%)
  Percutaneous Transluminal Coronary Angioplas, n/total (%): (9.1%)
  Fatal/Nonfatal Cerebrovascular Disease, n/total (%): (4.1%)
2 Rare Alleles
  Fatal/Nonfatal MI (def & prob), n/total (%): (11.2%)
  Hosp. for Unstable Angina, n/total (%): (10.1%)
  MI (Fatal/Nonfatal), n/total (%): (11.2%)
  Nonfatal MI (Probable/Definite), n/total (%): (11.2%)
  Nonfatal MI (def & prob), n/total (%): (11.2%)
  Percutaneous Transluminal Coronary Angioplas, n/total (%): (8.2%)
  Fatal/Nonfatal Cerebrovascular Disease, n/total (%): (1.7%)
MTRR hCV7580070, 0 Rare Alleles, n/total 338/1201
  Total Coronary Heart Disease Events, n/total (%): (28.1%)
MTRR hCV7580070, 0 Rare Alleles, n/total 390/1201
  Fatal/Non-fatal Atherosclerotic CV Disease, n/total (%): (32.5%)
MTRR hCV7580070, 0 Rare Alleles, n/total 466/1201
  Hosp. for Cardiovascular Disease, n/total (%): (38.8%)
MTRR hCV7580070, 0 Rare Alleles, n/total 480/1201
  Total Cardiovascular Disease Events, n/total (%): (40.0%)
MTRR hCV7580070, 1 Rare Allele, n/total 98/284
  Total Coronary Heart Disease Events, n/total (%): (34.5%)
MTRR hCV7580070, 1 Rare Allele, n/total 110/284
  Fatal/Non-fatal Atherosclerotic CV Disease, n/total (%): (38.7%)
MTRR hCV7580070, 1 Rare Allele, n/total 135/284
  Hosp. for Cardiovascular Disease, n/total (%): (47.5%)
MTRR hCV7580070, 1 Rare Allele, n/total 137/284
  Total Cardiovascular Disease Events, n/total (%): (48.2%)
[1]
  Fatal/Non-fatal Atherosclerotic CV Disease, n/total (%): (9.1%)
  Total Coronary Heart Disease Events, n/total (%): (9.1%)
[2]
  Hosp. for Cardiovascular Disease, n/total (%): (22.7%)
  Total Cardiovascular Disease Events, n/total (%): (22.7%)
[3]
  Prava vs. Placebo Odds Ratio, 0 Rare Alleles: 0.74
  Prava vs. Placebo Odds Ratio, 1 Rare Alleles: 0.95
  Prava vs. Placebo Odds Ratio, 2 Rare Alleles: 0.09
[4]
  Prava vs. Placebo Odds Ratio, 0 Rare Alleles: 0.71
  Prava vs. Placebo Odds Ratio, 1 Rare Alleles: 1.04
  Prava vs. Placebo Odds Ratio, 2 Rare Alleles: 0.22
[5]
  Prava vs. Placebo Odds Ratio, 0 Rare Alleles: 0.71
  Prava vs. Placebo Odds Ratio, 1 Rare Alleles: 1.01
  Prava vs. Placebo Odds Ratio, 2 Rare Alleles: 0.22
[6]
  Prava vs. Placebo Odds Ratio, 0 Rare Alleles: 0.73
  Prava vs. Placebo Odds Ratio, 1 Rare Alleles: 1.00
  Prava vs. Placebo Odds Ratio, 2 Rare Alleles: 0.12
NPC1 hCV7490135, 0 Rare Alleles, n/total 25/437
  Fatal Atherosclerotic Cardiovascular Disease, n/total (%): (5.7%)
NPC1 hCV7490135, 0 Rare Alleles, n/total 26/437
  Cardiovascular Mortality, n/total (%): (5.9%)
NPC1 hCV7490135, 0 Rare Alleles, n/total 146/437
  Total Coronary Heart Disease Events, n/total (%): (33.4%)
NPC1 hCV7490135, 0 Rare Alleles, n/total 165/437
  Fatal/Non-fatal Atherosclerotic CV Disease, n/total (%): (37.8%)
NPC1 hCV7490135, 0 Rare Alleles, n/total 194/437
  Hosp. for Cardiovascular Disease, n/total (%): (44.4%)
NPC1 hCV7490135, 0 Rare Alleles, n/total 202/437
  Total Cardiovascular Disease Events, n/total (%): (46.2%)
[7]
  Cardiovascular Mortality, n/total (%): (3.5%)
  Fatal Atherosclerotic Cardiovascular Disease, n/total (%): (3.5%)
NPC1 hCV7490135, 1 Rare Allele, n/total 213/742
  Total Coronary Heart Disease Events, n/total (%): (28.7%)
NPC1 hCV7490135, 1 Rare Allele, n/total 246/742
  Fatal/Non-fatal Atherosclerotic CV Disease, n/total (%): (33.2%)
NPC1 hCV7490135, 1 Rare Allele, n/total 295/742
  Hosp. for Cardiovascular Disease, n/total (%): (39.8%)
NPC1 hCV7490135, 1 Rare Allele, n/total 303/742
  Total Cardiovascular Disease Events, n/total (%): (40.8%)
[8]
  Cardiovascular Mortality, n/total (%): (0.9%)
  Fatal Atherosclerotic Cardiovascular Disease, n/total (%): (0.9%)
NPC1 hCV7490135, 2 Rare Alleles, n/total 81/324
  Total Coronary Heart Disease Events, n/total (%): (25.0%)

Reference: patent US9932637B2, “Genetic polymorphisms associated with cardiovascular disorders and drug response, methods of detection and uses thereof” (CELERA CORPORATION, priority 2003, dated 2018)
